From US6558954B1, “Phenotypic conversion of cells mediated by external guide sequences” (priority 1996, dated 2003)

Tested on: bacterial species tested
Assay: TMP-mediated delivery of EGS, overall statement for the bacterial species tested
Format: cell-based
Settings: E. coli, P. aeruginosa, S. aureus, B. subtilis (FIG. 2)
Excerpt: The results in Example 1 indicate enhanced delivery of a nucleic acid to the Gram negative organism E. coli. […] Staphylococcus aureus (Gram positive), Pseudomonas aeruginosa (Gram negative) and Bacillus subtilis (Gram positive) were obtained from the ATCC and grown overnight. The bacteria were washed with TB and resuspended to give an OD of 1.0. TMP/EGS complexes were set up as in Example 1 and delivered to the cells.
The cells were washed three times with TB and then treated with lysozyme solutions with EDTA (for Gram negative) or without EDTA (for Gram positive) according to the protocol of Merchant et al., J. Photochem. Photobiol. B: Biol. 32:153-157 (1996). The amount of EGS present in the cell pellet and the cell wall fraction was calculated following scintillation counting.

C[n+]1ccc(-c2c3nc(c(-c4cc[n+](C)cc4)c4ccc([nH]4)c(-c4cc[n+](C)cc4)c4nc(c(-c5cc[n+](C)cc5)c5ccc2[nH]5)C=C4)C=C3)cc1 [TMP, tetra meso (n-methyl 4-pyridyl)porphine]
ability of TMP to deliver EGS: able to deliver EGS to the bacterial species tested
